# Tests used:
# [1] = test system: Influenza A/WSN/33 virus (H1N1); assay: microbe, parasite or virus in culture; assay type: cell-based
SMILES,"production of infectious influenza virus particles (virus titer, plaque assay) [1]",influenza viral protein expression (influenza virus),"influenza viral protein expression (NP, NS1, NS2, M1, M2) (influenza virus)"
"CCCCCCCCCCCCC/C=C/[C@@H](O)[C@H](CO)N(C)C [DMS, D-erythro-N,N-dimethylsphingosine]",suppressed the production of infectious influenza virus particles,inhibition was also observed,inhibited influenza viral protein expression
"Oc1ccc(Nc2nc(-c3ccc(Cl)cc3)cs2)cc1 [SKI-II, 4-[4-(4-Chloro-phenyl)-thiazol-2-ylamino]-phenol]",suppressed the production of infectious influenza virus particles,inhibition was also observed,inhibited influenza viral protein expression

# Source: US9687477B2 (priority 2011, dated 2017)
